Data from patent publication US5216011A (priority 1989, dated 1993).
Like-named read-outs stand apart in the source and are kept apart here.

Experiments:
[1] = Apparent pH of propylene glycol before and after sodium bicarbonate treatment; format: physicochemical; settings: after 1:10 dilution with water
Method: Into a 50 mL Erlenmeyer flask containing 25 mL of neat propylene glycol was added 25 mg sodium bicarbonate. The mixture was stirred for 10 minutes. After standing for 30 minutes, the mixture was then filtered through a Millex-SR filter (Millipore Corp., P/N#SLSR025NS) to remove undissolved sodium bicarbonate. Apparent pH of propylene glycol before and after the treatment (after 1:10 dilution with water) was measured and were 6.5 and 8.4, respectively.

[2] = Stability of mitomycin C (5 mg/mL) in polyethylene glycols; format: physicochemical
[3] = neutral pH, unbuffered solution, Ref. 6; cited from earlier work
[4] = From the text: The effect of pretreatment of propylene glycol with sodium bicarbonate and carbon (Darco G-60) was investigated.
[5] = Pseudo first-order rate constants for degradation of mitomycin C in neat propylene glycol; format: physicochemical
Method: ^a Data were taken from Table VI. m:month.
^b Predicted from 40° C. data.

[6] = cited from earlier work; for stable for: 20-40 mcg/mL, room temperature; for degradation product: aqueous
[7] = Solution stability of mitomycin C in non-aqueous solvents (Table V); format: physicochemical
From the text: ^a All solutions on test in amber vials and nitrogen purged.
^b The pH of these vehicles was adjusted to 7.0 with citric acid.
^c Dried over molecular sieve.

[8] = Predicted stability of mitomycin C at different temperatures (aqueous degradation kinetics)

## CC(O)CO (stereo not drawn) [propylene glycol]
[1]; after sodium bicarbonate treatment
  Apparent pH after treatment: 8.4
[1]; before sodium bicarbonate treatment
  Apparent pH before treatment: 6.5

## CO[C@@]12[C@H](COC(N)=O)C3=C(C(=O)C(C)=C(N)C3=O)N1C[C@@H]1N[C@@H]12 [mitomycin C]
[2]; PEG 200, 300 and 400
  Stability: poor and variable stability
[2]; PEG 400
  Effect of purging with nitrogen on stability: improved stability
[2]; PEG 400, sodium glycodeoxycholate
  Effect of pH adjustment to 6.2 on stability: unsuccessful
[2]; PEG, nitrogen purged solutions
  Effect of propyl gallate on stability: not to improve stability
[3]
  E act (activation energy for decomposition): 81.2 kJ/mol
[4]; PG and PG/water, 25° C.
  Effect of air vs. nitrogen on stability: more stable in the presence of nitrogen
[4]; all PG formulations, 25° C. and 4° C.
  Stability: Excellent stability
[4]; glycerin
  Stability: poor stability
[4]; propylene glycol
  Effect of 5% and 10% water on stability: do not adversely affect, and may actually improve, mitomycin C stability
  Effect of pretreatment of propylene glycol with carbon (Darco G-60) on stability: did not significantly improve mitomycin C stability
  Effect of pretreatment of propylene glycol with sodium bicarbonate on stability: significantly improved
[4]; propylene glycol, vs control solution
  Effect of three antioxidants on stability: do not significantly improve mitomycin C stability
[5]; 4-40° C.
  Arrhenius activation energy, Ea: 69 kJ/mol
[5]; 4° C.
  time for which potency will remain greater than 90% of initial: more than 30 months
[5]; 4 °C
  t90: 38 months
[5]; 4 °C (277 K), m: month
  10^2 ko (pseudo first-order rate constant): 0.276 m^-1
[5]; 4 °C, m: month
  t90 predicted from 40° C. data: 39 m
[5]; 25 °C
  t90: 3.9 months
[5]; 25 °C (298 K), m: month
  10^2 ko (pseudo first-order rate constant): 2.69 m^-1
[5]; 40 °C
  t90: 37 days
[5]; 40 °C (313 K), m: month
  10^2 ko (pseudo first-order rate constant): 8.40 m^-1
[6]; 0.9% sodium chloride injection
  stable for: 12 h
[6]; 5% dextrose injection
  stable for: 3 h
[6]; aqueous solutions
  pH of maximum stability: 7-8
[6]; pH above 7
  degradation product: hydrolyzed to 7-hydroxymitosane
[6]; pH below 7
  degradation product: converted to 1-hydroxy-2,7-diaminomitosanes
[6]; in water at 25° C.
  time to loss of 10% potency: about 40 days
[6]; sodium/lactate injection
  stable for: 24 h
[7]; 2-pyrrolidone (2-Pyr)
  Stability: Slightly lower stability
[7]; DMA, NMP and PG
  Stability: Excellent stability
[7]; ethanol
  Stability: surprisingly poor
[7]; propylene glycol, vs neat solvent
  Effect of addition of 2% water on stability: appeared to increase stability
[8]; 5° C., predicted
  t50: 7.6 y
  t90: 420 days
[8]; 5° C., predicted from E act
  decomposition rate constant: 1.04e-05 h⁻¹
[8]; 5° C., unbuffered aqueous solution
  predicted t90: about one
[8]; 25° C.
  t50: 0.7 y
  t90: 40 days
[8]; 25° C., 0.05M phosphate buffer, pH 7.43
  decomposition rate constant: 0.00011 h⁻¹
[8]; in water, 25° C.
  time until potency falls to 90% of its original value: 40 days
